Assay results from patent US20160184279A1, “METHODS OF TREATING PAIN AND/OR ITCH WITH SMALL MOLECULE INHIBITORS TARGETING AN mTOR PATHWAY” (Transderm, Inc., priority 2014, published 2016).

Assay: Solubility of rapamycin in solvents
Format: physicochemical
From the text: Formulations for topical or transdermal delivery systems which effectively administer mTOR inhibitors to treat pain can be challenging to make. One such challenge can be caused by the structures of the various mTOR inhibitors and the associated solubility and/or stability challenges that exist for many of these compounds. […] Benzyl alcohol has been identified as a solvent that can effectively solubilize rapamycin. In particular, benzyl alcohol can support 20 wt % solutions and higher of rapamycin. […] For example, formulations utilizing Span 80 and/or Tween 20 as surfactants were only able to achieve benzyl alcohol loading of 20 wt % or less.

solubility in aqueous compositions, ethanolic compositions, triglycerides, alkanes, and silicone systems: poorly solubilized | solubility in benzyl alcohol (benzyl alcohol solution): ≥ 20 wt %
Structure (SMILES): CO[C@H]1C[C@@H]2CC[C@@H](C)[C@@](O)(O2)C(=O)C(=O)N2CCCC[C@H]2C(=O)O[C@H]([C@H](C)C[C@@H]2CC[C@@H](O)[C@H](OC)C2)CC(=O)[C@H](C)/C=C(\C)[C@@H](O)[C@@H](OC)C(=O)[C@H](C)C[C@H](C)/C=C/C=C/C=C/1C [rapamycin]
